From ChEMBL document CHEMBL1201862, “PubChem BioAssay data set” (2004)
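The compound was tested at five concentrations on cells cultured in 96-well plates, with a 48-hour exposure period. GI50 = concentration required for 50% inhibition of growth.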 The source made the active and inactive calls. No stated cut-off is given here; in the data, active = GI50 up to about 1.1 µM and inactive = higher.

Key:
Experiment in all cases: inhibition of tumour cell growth, NCI panel, 48 h
NCI/ADR-RES = tested on: NCI/ADR-RES
MOLT-4 = tested on: MOLT-4
NCI-H226 = tested on: NCI-H226
IGROV-1 = tested on: IGROV-1
SNB-19 = tested on: SNB-19
UO-31 = tested on: UO-31
SK-OV-3 = tested on: SK-OV-3
BT-549 = tested on: BT-549
786-0 = tested on: 786-0
HT-29 = tested on: HT-29
KM12 = tested on: KM12
SF-539 = tested on: SF-539
NCI-H23 = tested on: NCI-H23
UACC-62 = tested on: UACC-62
DU-145 = tested on: DU-145
UACC-257 = tested on: UACC-257
SNB-75 = tested on: SNB-75
U-251 = tested on: U-251
CCRF-CEM = tested on: CCRF-CEM
MDA-MB-231 = tested on: MDA-MB-231
HCT-116 = tested on: HCT-116
OVCAR-8 = tested on: OVCAR-8
ACHN = tested on: ACHN
A549 = tested on: A549
HOP-62 = tested on: HOP-62
LOX IMVI = tested on: LOX IMVI
A498 = tested on: A498
NCI-H522 = tested on: NCI-H522
HOP-92 = tested on: HOP-92
MCF7 = tested on: MCF7
PC-3 = tested on: PC-3
MDA-MB-435 = tested on: MDA-MB-435
HCT-15 = tested on: HCT-15
Hs-578T = tested on: Hs-578T
SW-620 = tested on: SW-620
HL-60 = tested on: HL-60
SK-MEL-2 = tested on: SK-MEL-2
COLO 205 = tested on: COLO 205
NCI-H460 = tested on: NCI-H460
OVCAR-4 = tested on: OVCAR-4
SK-MEL-5 = tested on: SK-MEL-5
SN12C = tested on: SN12C
SF-295 = tested on: SF-295
MDA-N = tested on: MDA-N
EKVX = tested on: EKVX
T47D = tested on: T47D
TK-10 = tested on: TK-10
SF-268 = tested on: SF-268
CAKI-1 = tested on: CAKI-1
SK-MEL-28 = tested on: SK-MEL-28
M14 = tested on: M14
RXF 393 = tested on: RXF 393
OVCAR-5 = tested on: OVCAR-5
OVCAR-3 = tested on: OVCAR-3
K562 = tested on: K562
RPMI-8226 = tested on: RPMI-8226
HCC 2998 = tested on: HCC 2998
Malme-3M = tested on: Malme-3M

O=c1c(NCc2ccccc2)c(C2(c3ccccc3F)SCCCS2)c1=O
GI50 (NCI/ADR-RES): > 100 µM (inactive)
GI50 (MOLT-4): 54 µM (inactive)
GI50 (NCI-H226): > 100 µM (inactive)
GI50 (IGROV-1): > 100 µM (inactive)
GI50 (SNB-19): > 100 µM (inactive)
GI50 (UO-31): > 100 µM (inactive)
GI50 (SK-OV-3): > 100 µM (inactive)
GI50 (BT-549): > 100 µM (inactive)
GI50 (786-0): > 100 µM (inactive)
GI50 (HT-29): > 100 µM (inactive)
GI50 (KM12): 46.1 µM (inactive)
GI50 (SF-539): > 100 µM (inactive)
GI50 (NCI-H23): > 100 µM (inactive)
GI50 (UACC-62): 79.1 µM (inactive)
GI50 (DU-145): > 100 µM (inactive)
GI50 (UACC-257): > 100 µM (inactive)
GI50 (SNB-75): > 100 µM (inactive)
GI50 (U-251): > 100 µM (inactive)
GI50 (CCRF-CEM): > 100 µM (inactive)
GI50 (MDA-MB-231): > 100 µM (inactive)
GI50 (HCT-116): > 100 µM (inactive)
GI50 (OVCAR-8): > 100 µM (inactive)
GI50 (ACHN): > 100 µM (inactive)
GI50 (A549): > 100 µM (inactive)
GI50 (HOP-62): > 100 µM (inactive)
GI50 (LOX IMVI): > 100 µM (inactive)
GI50 (A498): 82.8 µM (inactive)
GI50 (NCI-H522): 23.7 µM (inactive)
GI50 (HOP-92): > 100 µM (inactive)
GI50 (MCF7): > 100 µM (inactive)
GI50 (PC-3): > 100 µM (inactive)
GI50 (MDA-MB-435): 19.5 µM (inactive)
GI50 (HCT-15): > 100 µM
GI50 (Hs-578T): > 100 µM (inactive)
GI50 (SW-620): > 100 µM (inactive)
GI50 (HL-60): 29.2 µM (inactive)
GI50 (SK-MEL-2): > 100 µM (inactive)
GI50 (COLO 205): > 100 µM (inactive)
GI50 (NCI-H460): > 100 µM (inactive)
GI50 (OVCAR-4): > 100 µM (inactive)
GI50 (SK-MEL-5): > 100 µM (inactive)
GI50 (SN12C): > 100 µM (inactive)
GI50 (SF-295): > 100 µM (inactive)
GI50 (MDA-N): 41.9 µM (inactive)
GI50 (EKVX): > 100 µM (inactive)
GI50 (T47D): > 100 µM (inactive)
GI50 (TK-10): > 100 µM (inactive)
GI50 (SF-268): > 100 µM (inactive)
GI50 (CAKI-1): > 100 µM (inactive)
GI50 (SK-MEL-28): > 100 µM (inactive)
GI50 (M14): > 100 µM (inactive)
GI50 (RXF 393): > 100 µM (inactive)
GI50 (OVCAR-5): > 100 µM (inactive)
GI50 (OVCAR-3): > 100 µM (inactive)

COc1c2ccoc2nc2c(OC)c(OCC(O)C(C)(C)O)ccc12 (stereo unspecified) [EVOXINE]
GI50 (NCI/ADR-RES): > 100 µM (inactive)
GI50 (MOLT-4): > 100 µM (inactive)
GI50 (NCI-H226): > 100 µM (inactive)
GI50 (IGROV-1): 70 µM (inactive)
GI50 (SNB-19): > 100 µM (inactive)
GI50 (UO-31): > 100 µM (inactive)
GI50 (SK-OV-3): > 100 µM (inactive)
GI50 (BT-549): > 100 µM (inactive)
GI50 (786-0): > 100 µM (inactive)
GI50 (HT-29): > 100 µM (inactive)
GI50 (K562): > 100 µM (inactive)
GI50 (KM12): > 100 µM (inactive)
GI50 (SF-539): > 100 µM (inactive)
GI50 (NCI-H23): > 100 µM (inactive)
GI50 (UACC-62): > 100 µM (inactive)
GI50 (DU-145): > 100 µM (inactive)
GI50 (UACC-257): > 100 µM (inactive)
GI50 (SNB-75): 63.1 µM (inactive)
GI50 (U-251): > 100 µM (inactive)
GI50 (CCRF-CEM): > 100 µM (inactive)
GI50 (MDA-MB-231): 75.3 µM (inactive)
GI50 (HCT-116): > 100 µM (inactive)
GI50 (OVCAR-8): > 100 µM (inactive)
GI50 (ACHN): > 100 µM (inactive)
GI50 (A549): > 100 µM (inactive)
GI50 (LOX IMVI): > 100 µM (inactive)
GI50 (A498): > 100 µM (inactive)
GI50 (NCI-H522): > 100 µM (inactive)
GI50 (HOP-92): > 100 µM (inactive)
GI50 (MCF7): > 100 µM (inactive)
GI50 (PC-3): > 100 µM (inactive)
GI50 (MDA-MB-435): > 100 µM (inactive)
GI50 (HCT-15): > 100 µM
GI50 (Hs-578T): > 100 µM (inactive)
GI50 (SW-620): > 100 µM (inactive)
GI50 (HL-60): > 100 µM (inactive)
GI50 (SK-MEL-2): > 100 µM (inactive)
GI50 (COLO 205): > 100 µM (inactive)
GI50 (RPMI-8226): > 100 µM (inactive)
GI50 (HCC 2998): > 100 µM (inactive)
GI50 (Malme-3M): > 100 µM (inactive)
GI50 (NCI-H460): > 100 µM (inactive)
GI50 (OVCAR-4): > 100 µM (inactive)
GI50 (SK-MEL-5): > 100 µM (inactive)
GI50 (SN12C): > 100 µM (inactive)
GI50 (SF-295): > 100 µM (inactive)
GI50 (MDA-N): > 100 µM (inactive)
GI50 (EKVX): > 100 µM (inactive)
GI50 (T47D): > 100 µM (inactive)
GI50 (TK-10): > 100 µM (inactive)
GI50 (SF-268): > 100 µM (inactive)
GI50 (CAKI-1): > 100 µM (inactive)
GI50 (SK-MEL-28): > 100 µM (inactive)
GI50 (M14): > 100 µM (inactive)
GI50 (OVCAR-5): > 100 µM (inactive)
GI50 (OVCAR-3): > 100 µM (inactive)

OCCSCc1cc2c(O)c(c1)Cc1cc(CSCCO)cc(c1O)Cc1cc(CSCCO)cc(c1O)Cc1cc(CSCCO)cc(c1O)C2
GI50 (NCI/ADR-RES): 22.2 µM (inactive)
GI50 (MOLT-4): 3.35 µM (inactive)
GI50 (NCI-H226): 10.4 µM (inactive)
GI50 (IGROV-1): 3.65 µM (inactive)
GI50 (SNB-19): 4.69 µM (inactive)
GI50 (UO-31): 13.8 µM (inactive)
GI50 (SK-OV-3): 8.47 µM (inactive)
GI50 (BT-549): 3.3 µM (inactive)
GI50 (786-0): 3.29 µM (inactive)
GI50 (HT-29): 2.88 µM (inactive)
GI50 (K562): 7.28 µM (inactive)
GI50 (KM12): 4.28 µM (inactive)
GI50 (SF-539): 4.02 µM (inactive)
GI50 (NCI-H23): 5.37 µM (inactive)
GI50 (DU-145): 4.91 µM (inactive)
GI50 (UACC-257): 4.23 µM (inactive)
GI50 (U-251): 4.48 µM (inactive)
GI50 (CCRF-CEM): 5.35 µM (inactive)
GI50 (MDA-MB-231): 2.54 µM (inactive)
GI50 (HCT-116): 4.02 µM (inactive)
GI50 (OVCAR-8): 5.09 µM (inactive)
GI50 (ACHN): 3.19 µM (inactive)
GI50 (A549): 4.86 µM (inactive)
GI50 (HOP-62): 5.01 µM (inactive)
GI50 (LOX IMVI): 3.44 µM (inactive)
GI50 (A498): 6.15 µM (inactive)
GI50 (NCI-H522): 2.18 µM (inactive)
GI50 (HOP-92): 4.26 µM (inactive)
GI50 (MCF7): 3.91 µM (inactive)
GI50 (PC-3): 3.51 µM (inactive)
GI50 (MDA-MB-435): 2.83 µM (inactive)
GI50 (HCT-15): 8.81 µM
GI50 (Hs-578T): 8.43 µM (inactive)
GI50 (SW-620): 3.92 µM (inactive)
GI50 (HL-60): 4.04 µM (inactive)
GI50 (SK-MEL-2): 2.32 µM (inactive)
GI50 (COLO 205): 2.68 µM (inactive)
GI50 (RPMI-8226): 3.95 µM (inactive)
GI50 (HCC 2998): 9.38 µM (inactive)
GI50 (Malme-3M): 2.04 µM (inactive)
GI50 (NCI-H460): 2.89 µM (inactive)
GI50 (OVCAR-4): 3.61 µM (inactive)
GI50 (SK-MEL-5): 2.69 µM (inactive)
GI50 (SN12C): 4.59 µM (inactive)
GI50 (SF-295): 5.02 µM (inactive)
GI50 (MDA-N): 3.42 µM (inactive)
GI50 (EKVX): 15 µM (inactive)
GI50 (T47D): 6.47 µM (inactive)
GI50 (TK-10): 4.8 µM (inactive)
GI50 (SF-268): 2.88 µM (inactive)
GI50 (CAKI-1): 3.1 µM (inactive)
GI50 (SK-MEL-28): 3.56 µM (inactive)
GI50 (M14): 3.08 µM (inactive)
GI50 (RXF 393): 4.58 µM (inactive)
GI50 (OVCAR-5): 5.6 µM (inactive)
GI50 (OVCAR-3): 1.73 µM (inactive)
